# Measurements reported in patent publication US10273226B2, “Pyrazolyl-heteroarylamides as pesticides” (Bayer Animal Health GmbH, priority 2014, dated 2019).
# Key:
# Type in all cases: in vivo
# Boophilus microplus = Boophilus microplus injection test; settings: application rate 20 μg/animal; injection into abdomen; assessed after 7 days
# Procedure: Boophilus microplus—Injection Test
# (§1) Solvent: dimethyl sulphoxide
# To produce an appropriate active ingredient formulation, 10 mg of active ingredient are mixed with 0.5 ml of solvent and the concentrate is diluted with solvent to the desired concentration.
# 1 μl of the active ingredient solution is injected into the abdomen of 5 engorged adult female cattle ticks (Boophilus microplus). The animals are transferred into dishes and kept in a climate-controlled room.
# Efficacy is assessed after 7 days by laying of fertile eggs. Eggs which are not visibly fertile are stored in a climate-controlled cabinet until the larvae hatch after about 42 days. An efficacy of 100% means that none of the ticks has laid any fertile eggs; 0% means that all the eggs are fertile.
# Lucilia cuprina = Lucilia cuprina test; settings: application rate 100 ppm; L1 larvae; after 2 days
# Procedure: as §1
# To produce an appropriate active ingredient formulation, 10 mg of active ingredient are mixed with 0.5 ml of dimethyl sulphoxide, and the concentrate is diluted with water to the desired concentration.
# About 20 L1 larvae of the Australian sheep blowfly (Lucilia cuprina) are transferred into a test vessel containing minced horsemeat and the active ingredient preparation of the desired concentration.
# After 2 days, the kill in % is determined. 100% means that all the larvae have been killed and 0% means that none of the larvae have been killed.
# Spodoptera frugiperda = Spodoptera frugiperda spray test; settings: caterpillars, after 7 days
# Procedure: Spodoptera frugiperda—Spray Test
# (§2) To produce an appropriate active ingredient formulation, 1 part by weight of active ingredient is dissolved using the specified parts by weight of solvent and made up with water containing an emulsifier concentration of 1000 ppm until the desired concentration is attained. To produce further test concentrations, the preparation is diluted with emulsifier-containing water.
# Leaf discs of maize (Zea mays) are sprayed with an active ingredient formulation of the desired concentration and, after drying, populated with caterpillars of the armyworm (Spodoptera frugiperda).
# After 7 days, efficacy in % is determined. 100% means that all the caterpillars have been killed; 0% means that no caterpillars have been killed.
# Ctenocephalides felis = Ctenocephalides felis oral test; settings: application rate 100 ppm in citrated cattle blood; after 2 days
# Procedure: Ctenocephalides felis—Oral Test
# as §1
# For the purpose of producing an appropriate active ingredient formulation, 10 mg of active ingredient are mixed with 0.5 ml of dimethyl sulphoxide. Dilution with citrated cattle blood gives the desired concentration.
# About 20 unfed adult cat fleas (Ctenocephalides felis) are placed into a chamber which is closed at the top and bottom with gauze. A metal cylinder whose bottom end is closed with parafilm is placed onto the chamber. The cylinder contains the blood/active ingredient preparation, which can be imbibed by the fleas through the parafilm membrane.
# After 2 days, the kill in % is determined. 100% means that all of the fleas have been killed; 0% means that none of the fleas have been killed.
# Phaedon cochleariae = Phaedon cochleariae spray test; settings: application rate 100 g/ha; larvae; after 7 days
# Procedure: Phaedon cochleariae—Spray Test
# as §2
# Discs of Chinese cabbage leaves (Brassica pekinensis) are sprayed with an active ingredient formulation of the desired concentration and, after drying, populated with larvae of the mustard beetle (Phaedon cochleariae).
# After 7 days, efficacy in % is determined. 100% means that all the beetle larvae have been killed; 0% means that no beetle larvae have been killed.
# Rhipicephalus sanguineus = Rhipicephalus sanguineus in vitro contact test with adult brown dog ticks; settings: after 48 h, ticks dead or moribund
# Procedure: Rhipicephalus sanguineus—In Vitro Contact Tests with Adult Brown Dog Ticks
# For the coating of the test tubes, 9 mg of active ingredient are first dissolved in 1 ml of acetone p.a. and then diluted to the desired concentration with acetone p.a. 250 μl of the solution are distributed homogeneously on the inner walls and base of a 25 ml test tube by turning and rocking on an orbital shaker (rocking rotation at 30 rpm for 2 h). With 900 ppm active ingredient solution and internal surface 44.7 cm^2, given homogeneous distribution, an area-based dose of 5 μg/cm^2 is achieved.
# After the solvent has evaporated off, the tubes are populated with 5-10 adult dog ticks (Rhipicephalus sanguineus), sealed with a perforated plastic lid and incubated in a horizontal position in the dark at room temperature and ambient humidity. After 48 h, efficacy is determined. To this end, the ticks are knocked to the floor of the tube and incubated on a hotplate at 45-50° C. for not more than 5 min. Ticks which remain motionless on the floor or move in such an uncoordinated manner that they are unable to deliberately avoid the heat by climbing upwards are considered to be dead or moribund.
# An efficacy of 100% means that all the ticks were dead or moribund. 0% efficacy means that none of the ticks had been harmed.
# Tetranychus urticae = Tetranychus urticae spray test, OP-resistant; settings: application rate 100 g/ha; after 6 days
# Procedure: Tetranychus urticae—Spray Test, OP-Resistant
# as §2
# Discs of bean leaves (Phaseolus vulgaris) infested by all stages of the greenhouse red spider mite (Tetranychus urticae) are sprayed with an active ingredient formulation of the desired concentration.
# After 6 days, efficacy in % is determined. 100% means that all the spider mites have been killed; 0% means that none of the spider mites have been killed.
# [1] = application rate 5 μg/cm^2 (500 g/ha)
Compound,efficacy (laying of fertile eggs) (Boophilus microplus) [%],efficacy (kill in %) (Lucilia cuprina) [%],efficacy (kill in %) (Ctenocephalides felis) [%],also measured
Cn1nc(C(F)(F)C(F)(F)F)c(C(F)(F)F)c1-n1cc(-c2cnc(Cl)c(NC(=O)c3ncccc3Cl)c2)cn1 [Example 2-002],100,–,–,–
Cn1nc(C(F)(F)C(F)(F)F)c(C(F)(F)F)c1-n1cc(-c2ccc(F)c(NC(=O)c3cccc(C(F)(F)F)c3)c2)cn1 [Example 1-057],100,100,95,efficacy (Spodoptera frugiperda; application rate 100 g/ha): 83%
Cn1nc(C(F)(F)C(F)(F)F)c(C(F)(F)F)c1-n1cc(-c2ccc(Cl)c(NC(=O)c3ncccc3Cl)c2)cn1 [Example 1-021],–,–,80,–
Cc1cn(CC(=O)Nc2cc(-c3cnn(-c4c(C(F)(F)F)c(C(F)(F)C(F)(F)F)nn4C)c3)ccc2F)nc1C(F)(F)F [Example 1-112],95,–,–,–
Cn1nc(C(F)(F)C(F)(F)F)c(C(F)(F)F)c1-n1cc(-c2ccc(F)c(NC(=O)Cc3cccc(C(F)(F)F)c3)c2)cn1 [Example 1-116],100,100,100,efficacy (Phaedon cochleariae): 100%; efficacy (Spodoptera frugiperda; application rate 100 g/ha): 83%
CC(Oc1ccccc1)C(=O)Nc1cc(-c2cnn(-c3c(C(F)(F)F)c(C(F)(F)C(F)(F)F)nn3C)c2)ccc1F (racemic) [Example 1-123],100,–,90,–
Cn1nc(C(F)(F)C(F)(F)F)c(C(F)(F)F)c1-n1cc(-c2ccc(F)c(NC(=O)c3ccc(F)c(C(F)(F)F)c3)c2)cn1 [Example 1-050],100,100,–,efficacy (Phaedon cochleariae): 100%
COCCC(=O)Nc1cc(-c2cnn(-c3c(C(F)(F)F)c(C(F)(F)C(F)(F)F)nn3C)c2)ccc1F [Example 1-061],100,–,100,efficacy (Rhipicephalus sanguineus; [1]): 80%
Cn1nc(C(F)(F)C(F)(F)F)c(C(F)(F)F)c1-n1cc(-c2ccc(F)c(NC(=O)C3(C)CCCCC3)c2)cn1 [Example 1-053],–,–,–,efficacy (Tetranychus urticae): 100%
CCC(=O)Nc1cccc(-c2cnn(-c3c(C(F)(F)F)c(C(F)(F)C(F)(F)F)nn3C)c2)c1 [Example 1-008],100,100,100,efficacy (Rhipicephalus sanguineus; [1]): 100%
Cn1nc(C(F)(F)C(F)(F)F)c(C(F)(F)F)c1-n1cc(-c2ccc(F)c(NC(=O)CSc3ccccc3)c2)cn1 [Example 1-107],100,–,–,–
Cn1nc(C(F)(F)C(F)(F)F)c(C(F)(F)F)c1-n1cc(-c2ccc(F)c(NC(=O)C(c3ccccc3)C3CCCC3)c2)cn1 (racemic) [Example 1-109],80,–,–,–
Cn1nc(C(F)(F)C(F)(F)F)c(C(F)(F)F)c1-n1cc(-c2ccc(F)c(NC(=O)CC(C)(C)C)c2)cn1 [Example 1-079],100,100,95,–
CC(C(=O)Nc1cc(-c2cnn(-c3c(C(F)(F)F)c(C(F)(F)C(F)(F)F)nn3C)c2)ccc1F)c1ccccc1 (racemic) [Example 1-108],100,–,–,efficacy (Tetranychus urticae): 100%
Cc1ccc(C(=O)Nc2cc(-c3cnn(-c4c(C(F)(F)F)c(C(F)(F)C(F)(F)F)nn4C)c3)ccc2F)cc1C [Example 1-090],–,–,–,efficacy (Phaedon cochleariae): 100%; efficacy (Rhipicephalus sanguineus; [1]): 100%
Cc1cc(C(F)F)n2nc(C(=O)Nc3cc(-c4cnn(-c5c(C(F)(F)F)c(C(F)(F)C(F)(F)F)nn5C)c4)ccc3F)nc2n1 [Example 1-062],100,100,100,–
CCC(C(=O)Nc1cc(-c2cnn(-c3c(C(F)(F)F)c(C(F)(F)C(F)(F)F)nn3C)c2)ccc1F)c1ccccc1 (racemic) [Example 1-124],100,–,–,–
Cn1nc(C(F)(F)C(F)(F)F)c(C(F)(F)F)c1-n1cc(-c2ccc(F)c(NC(=O)Cc3cccs3)c2)cn1 [Example 1-117],100,100,100,efficacy (Spodoptera frugiperda; application rate 100 g/ha): 100%; efficacy (Rhipicephalus sanguineus; [1]): 100%
Cn1nc(C(F)(F)C(F)(F)F)c(C(F)(F)F)c1-n1cc(-c2cccc(NC(=O)c3ncccc3Cl)c2F)cn1 [Example 1-020],100,90,95,–
Cn1nc(C(F)(F)C(F)(F)F)c(C(F)(F)F)c1-n1cc(-c2ccc(F)c(NC(=O)CCc3ccccc3)c2)cn1 [Example 1-125],100,–,–,–
Cn1nc(C(F)(F)C(F)(F)F)c(C(F)(F)F)c1-n1cc(-c2ccc(F)c(NC(=O)c3cccc(F)c3F)c2)cn1 [Example 1-070],100,100,100,efficacy (Rhipicephalus sanguineus; [1]): 80%
Cn1nc(C(F)(F)C(F)(F)F)c(C(F)(F)F)c1-n1cc(-c2cccc(NC(=O)C3(Cl)CC3)c2)cn1 [Example 1-030],100,100,100,efficacy (Spodoptera frugiperda; application rate 500 g/ha): 100%; efficacy (Rhipicephalus sanguineus; [1]): 80%
Cn1nc(C(F)(F)C(F)(F)F)c(C(F)(F)F)c1-n1cc(-c2ccc(F)c(NC(=O)C3(c4ccc(Cl)cc4)CCC3)c2)cn1 [Example 1-115],100,80,90,–
COc1cc(C(=O)Nc2cc(-c3cnn(-c4c(C(F)(F)F)c(C(F)(F)C(F)(F)F)nn4C)c3)cnc2Cl)ccc1F [Example 2-007],100,100,100,efficacy (Phaedon cochleariae): 100%; efficacy (Rhipicephalus sanguineus; application rate 1 μg/cm^2 (100 g/ha)): 80%
Cc1ccc(C2(C(=O)Nc3cc(-c4cnn(-c5c(C(F)(F)F)c(C(F)(F)C(F)(F)F)nn5C)c4)ccc3F)CCCCC2)cc1 [Example 1-111],80,–,–,–
Cc1c(C(=O)Nc2cc(-c3cnn(-c4c(C(F)(F)F)c(C(F)(F)C(F)(F)F)nn4C)c3)ccc2F)oc2ccccc12 [Example 1-059],100,–,–,–
CCOCC(C)(C)C(=O)Nc1cc(-c2cnn(-c3c(C(F)(F)F)c(C(F)(F)C(F)(F)F)nn3C)c2)ccc1F [Example 1-082],100,–,90,–
Cn1nc(C(F)(F)C(F)(F)F)c(C(F)(F)F)c1-n1cc(-c2ccc(F)c(NC(=O)COCc3ccccc3)c2)cn1 [Example 1-114],100,–,–,–
Cn1nc(C(F)(F)C(F)(F)F)c(C(F)(F)F)c1-n1cc(-c2ccc(F)c(NC(=O)c3ccccc3OC(F)(F)F)c2)cn1 [Example 1-074],90,–,–,–
Cn1nc(C(F)(F)C(F)(F)F)c(C(F)(F)F)c1-n1cc(-c2cccc(NC(=O)c3ncccc3Cl)c2)cn1 [Example 1-005],100,100,100,efficacy (Phaedon cochleariae): 100%; efficacy (Spodoptera frugiperda; application rate 100 g/ha): 100%
